According to ChEMBL document CHEMBL5316337, “Critical Role of Position 10 Residue in the Polymyxin Antimicrobial Activity” (J Med Chem, 2023):
Values after ≈ are worked out from the molar mass of the structure shown. Bridge positions count the residues as written; N and C are the ends. Square brackets hold non-standard residues; d marks the D form. Peptide text beside a SMILES is read from it. * marks the point of attachment. X1 = CC[C@H](C)CCCCC(=O)*; Dab = NCC[C@H](N)C(=O)O

Legend:
Pseudomonas aeruginosa [1] = experiment: Antibacterial activity against polymyxin-susceptible Pseudomonas aeruginosa ATCC 27853 clinical isolates assessed as reduction in bacterial growth by broth microdilution method; type: functional
Pseudomonas aeruginosa [2] = experiment: Antibacterial activity against Carbapenem-resistant Pseudomonas aeruginosa FADD1-PA022 clinical isolates assessed as reduction in bacterial growth by broth microdilution method; type: functional
Pseudomonas aeruginosa [3] = experiment: Antibacterial activity against Carbapenem-resistant Pseudomonas aeruginosa FADD1-PA001 clinical isolates assessed as reduction in bacterial growth by broth microdilution method; type: functional
Pseudomonas aeruginosa [4] = experiment: Antibacterial activity against polymyxin-susceptible Pseudomonas aeruginosa FADD1-PA038 clinical isolates assessed as reduction in bacterial growth by broth microdilution method; type: functional
Pseudomonas aeruginosa [5] = experiment: Antibacterial activity against polymyxin-susceptible Pseudomonas aeruginosa FADD1-PA025 clinical isolates assessed as reduction in bacterial growth by broth microdilution method; type: functional
Acinetobacter baumannii [6] = experiment: Antibacterial activity against polymyxin-susceptible Acinetobacter baumannii ATCC 19606 clinical isolates assessed as reduction in bacterial growth by broth microdilution method; type: functional
Acinetobacter baumannii [7] = experiment: Antibacterial activity against Carbapenem-resistant Acinetobacter baumannii FADD1-AB034 clinical isolates assessed as reduction in bacterial growth by broth microdilution method; type: functional
Acinetobacter baumannii [8] = experiment: Antibacterial activity against polymyxin-susceptible Acinetobacter baumannii ATCC 17978 clinical isolates assessed as reduction in bacterial growth by broth microdilution method; type: functional
Acinetobacter baumannii [9] = experiment: Antibacterial activity against Carbapenem-resistant Acinetobacter baumannii FADD1-AB030 clinical isolates assessed as reduction in bacterial growth by broth microdilution method; type: functional
Klebsiella pneumoniae [10] = experiment: Antibacterial activity against Carbapenem-resistant Klebsiella pneumoniae FADD1-KP032 clinical isolates assessed as reduction in bacterial growth by broth microdilution method; type: functional
Klebsiella pneumoniae [11] = experiment: Antibacterial activity against Carbapenem-resistant Klebsiella pneumoniae FADD1-KP022 clinical isolates assessed as reduction in bacterial growth by broth microdilution method; type: functional
Klebsiella pneumoniae [12] = experiment: Antibacterial activity against Carbapenem-resistant Klebsiella pneumoniae BM1 clinical isolates assessed as reduction in bacterial growth by broth microdilution method; type: functional
Klebsiella pneumoniae [13] = experiment: Antibacterial activity against polymyxin-susceptible Klebsiella pneumoniae ATCC 700721 clinical isolates assessed as reduction in bacterial growth by broth microdilution method; type: functional
Klebsiella pneumoniae [14] = experiment: Antibacterial activity against Carbapenem-resistant Klebsiella pneumoniae FADD1-KP065 clinical isolates assessed as reduction in bacterial growth by broth microdilution method; type: functional
Enterobacter cloacae [15] = experiment: Antibacterial activity against polymyxin-susceptible Enterobacter cloacae FADD1-EC006 clinical isolates assessed as reduction in bacterial growth by broth microdilution method; type: functional
Enterobacter cloacae [16] = experiment: Antibacterial activity against polymyxin-susceptible Enterobacter cloacae FADD1-EC001 clinical isolates assessed as reduction in bacterial growth by broth microdilution method; type: functional
Enterobacter cloacae [17] = experiment: Antibacterial activity against polymyxin-susceptible Enterobacter cloacae FADD1-EC003 clinical isolates assessed as reduction in bacterial growth by broth microdilution method; type: functional
[18] = Acute toxicity in Swiss mouse assessed as maximum tolerated dose administered intravenously measured over 24 hrs; conditions: in vivo, route iv
[19] = Nephrotoxicity in Swiss mouse assessed as histopathological changes in kidney by measuring semiquantitative score at 12 mg/kg, sc administered as free base every 2 hrs for 6 doses and measured at 20 hrs; type: toxicity, organism-based; conditions: in vivo

SMILES	MIC (Pseudomonas aeruginosa [1])	MIC (Pseudomonas aeruginosa [2])	MIC (Pseudomonas aeruginosa [3])	MIC (Pseudomonas aeruginosa [4])	MIC (Pseudomonas aeruginosa [5])	MIC (Acinetobacter baumannii [6])	MIC (Acinetobacter baumannii [7])	MIC (Acinetobacter baumannii [8])	MIC (Acinetobacter baumannii [9])	MIC (Klebsiella pneumoniae [10])	MIC (Klebsiella pneumoniae [11])	MIC (Klebsiella pneumoniae [12])	MIC (Klebsiella pneumoniae [13])	MIC (Klebsiella pneumoniae [14])	MIC (Enterobacter cloacae [15])	MIC (Enterobacter cloacae [16])	MIC (Enterobacter cloacae [17])	MTD at 24 h [18]	Activity [19]
CC[C@H](C)CCCCC(=O)N[C@@H](CCN)C(=O)N[C@H](C(=O)N[C@@H](CCN)C(=O)N[C@H]1CCNC(=O)[C@H]([C@@H](C)O)NC(=O)[C@H](CCN)NC(=O)[C@H](CCN)NC(=O)[C@H](CC(C)C)NC(=O)[C@@H](Cc2ccccc2)NC(=O)[C@H](CCN)NC1=O)[C@@H](C)O	1 µg/mL (≈ 0.831 µM)	2 µg/mL (≈ 1.66 µM)	2 µg/mL (≈ 1.66 µM)	4 µg/mL (≈ 3.32 µM)	4 µg/mL (≈ 3.32 µM)	1 µg/mL (≈ 0.831 µM)	1 µg/mL (≈ 0.831 µM)	1 µg/mL (≈ 0.831 µM)	1 µg/mL (≈ 0.831 µM)	0.25 µg/mL (≈ 0.208 µM)	0.25 µg/mL (≈ 0.208 µM)	0.5 µg/mL (≈ 0.415 µM)	1 µg/mL (≈ 0.831 µM)	0.5 µg/mL (≈ 0.415 µM)	0.5 µg/mL (≈ 0.415 µM)	0.5 µg/mL (≈ 0.415 µM)	0.5 µg/mL (≈ 0.415 µM)	4 mg/kg	–
CC[C@H](C)CCCCC(=O)N[C@@H](CCN)C(=O)N[C@H](C(=O)N[C@@H](CCN)C(=O)N[C@H]1CCNC(=O)[C@H](C)NC(=O)[C@H](CCN)NC(=O)[C@H](CCN)NC(=O)[C@H](CC(C)C)NC(=O)[C@@H](Cc2ccccc2)NC(=O)[C@H](CCN)NC1=O)[C@@H](C)O	1 µg/mL (≈ 0.852 µM)	1 µg/mL (≈ 0.852 µM)	1 µg/mL (≈ 0.852 µM)	8 µg/mL (≈ 6.82 µM)	1 µg/mL (≈ 0.852 µM)	1 µg/mL (≈ 0.852 µM)	1 µg/mL (≈ 0.852 µM)	1 µg/mL (≈ 0.852 µM)	1 µg/mL (≈ 0.852 µM)	1 µg/mL (≈ 0.852 µM)	0.5 µg/mL (≈ 0.426 µM)	2 µg/mL (≈ 1.7 µM)	4 µg/mL (≈ 3.41 µM)	0.5 µg/mL (≈ 0.426 µM)	4 µg/mL (≈ 3.41 µM)	2 µg/mL (≈ 1.7 µM)	1 µg/mL (≈ 0.852 µM)	2.7 mg/kg	0
CC[C@H](C)CCCCC(=O)N[C@@H](CCN)C(=O)N[C@H](C(=O)N[C@@H](CCN)C(=O)N[C@H]1CCNC(=O)[C@H]([C@H](C)O)NC(=O)[C@H](CCN)NC(=O)[C@H](CCN)NC(=O)[C@H](CC(C)C)NC(=O)[C@@H](Cc2ccccc2)NC(=O)[C@H](CCN)NC1=O)[C@@H](C)O	1 µg/mL (≈ 0.831 µM)	1 µg/mL (≈ 0.831 µM)	1 µg/mL (≈ 0.831 µM)	4 µg/mL (≈ 3.32 µM)	2 µg/mL (≈ 1.66 µM)	8 µg/mL (≈ 6.65 µM)	2 µg/mL (≈ 1.66 µM)	4 µg/mL (≈ 3.32 µM)	2 µg/mL (≈ 1.66 µM)	2 µg/mL (≈ 1.66 µM)	0.25 µg/mL (≈ 0.208 µM)	1 µg/mL (≈ 0.831 µM)	1 µg/mL (≈ 0.831 µM)	0.5 µg/mL (≈ 0.415 µM)	8 µg/mL (≈ 6.65 µM)	2 µg/mL (≈ 1.66 µM)	1 µg/mL (≈ 0.831 µM)	4.1 mg/kg	0
CC[C@H](C)CCCCC(=O)N[C@@H](CCN)C(=O)N[C@H](C(=O)N[C@@H](CCN)C(=O)N[C@H]1CCNC(=O)[C@H](CO)NC(=O)[C@H](CCN)NC(=O)[C@H](CCN)NC(=O)[C@H](CC(C)C)NC(=O)[C@@H](Cc2ccccc2)NC(=O)[C@H](CCN)NC1=O)[C@@H](C)O	0.5 µg/mL (≈ 0.42 µM)	0.5 µg/mL (≈ 0.42 µM)	0.5 µg/mL (≈ 0.42 µM)	1 µg/mL (≈ 0.841 µM)	2 µg/mL (≈ 1.68 µM)	2 µg/mL (≈ 1.68 µM)	1 µg/mL (≈ 0.841 µM)	1 µg/mL (≈ 0.841 µM)	1 µg/mL (≈ 0.841 µM)	0.25 µg/mL (≈ 0.21 µM)	< 0.125 µg/mL	0.25 µg/mL (≈ 0.21 µM)	0.5 µg/mL (≈ 0.42 µM)	0.25 µg/mL (≈ 0.21 µM)	0.5 µg/mL (≈ 0.42 µM)	0.5 µg/mL (≈ 0.42 µM)	0.25 µg/mL (≈ 0.21 µM)	4.1 mg/kg	–
CC[C@H](C)CCCCC(=O)N[C@@H](CCN)C(=O)N[C@H](C(=O)N[C@@H](CCN)C(=O)N[C@H]1CCNC(=O)[C@H](CC)NC(=O)[C@H](CCN)NC(=O)[C@H](CCN)NC(=O)[C@H](CC(C)C)NC(=O)[C@@H](Cc2ccccc2)NC(=O)[C@H](CCN)NC1=O)[C@@H](C)O	1 µg/mL (≈ 0.842 µM)	1 µg/mL (≈ 0.842 µM)	1 µg/mL (≈ 0.842 µM)	2 µg/mL (≈ 1.68 µM)	1 µg/mL (≈ 0.842 µM)	2 µg/mL (≈ 1.68 µM)	2 µg/mL (≈ 1.68 µM)	2 µg/mL (≈ 1.68 µM)	1 µg/mL (≈ 0.842 µM)	1 µg/mL (≈ 0.842 µM)	0.25 µg/mL (≈ 0.211 µM)	0.5 µg/mL (≈ 0.421 µM)	4 µg/mL (≈ 3.37 µM)	0.5 µg/mL (≈ 0.421 µM)	4 µg/mL (≈ 3.37 µM)	2 µg/mL (≈ 1.68 µM)	1 µg/mL (≈ 0.842 µM)	4.1 mg/kg	0
CCC[C@@H]1NC(=O)[C@H](CCN)NC(=O)[C@H](CCN)NC(=O)[C@H](CC(C)C)NC(=O)[C@@H](Cc2ccccc2)NC(=O)[C@H](CCN)NC(=O)[C@@H](NC(=O)[C@H](CCN)NC(=O)[C@@H](NC(=O)[C@H](CCN)NC(=O)CCCC[C@@H](C)CC)[C@@H](C)O)CCNC1=O	1 µg/mL (≈ 0.832 µM)	1 µg/mL (≈ 0.832 µM)	1 µg/mL (≈ 0.832 µM)	2 µg/mL (≈ 1.66 µM)	2 µg/mL (≈ 1.66 µM)	4 µg/mL (≈ 3.33 µM)	4 µg/mL (≈ 3.33 µM)	4 µg/mL (≈ 3.33 µM)	0.5 µg/mL (≈ 0.416 µM)	1 µg/mL (≈ 0.832 µM)	0.5 µg/mL (≈ 0.416 µM)	1 µg/mL (≈ 0.832 µM)	2 µg/mL (≈ 1.66 µM)	0.5 µg/mL (≈ 0.416 µM)	2 µg/mL (≈ 1.66 µM)	2 µg/mL (≈ 1.66 µM)	2 µg/mL (≈ 1.66 µM)	4.1 mg/kg	0
CC[C@H](C)CCCCC(=O)N[C@@H](CCN)C(=O)N[C@H](C(=O)N[C@@H](CCN)C(=O)N[C@H]1CCNC(=O)[C@H](CC(C)C)NC(=O)[C@H](CCN)NC(=O)[C@H](CCN)NC(=O)[C@H](CC(C)C)NC(=O)[C@@H](Cc2ccccc2)NC(=O)[C@H](CCN)NC1=O)[C@@H](C)O (X1-[Dab]T[Dab][Dab][Dab][dF]L[Dab][Dab]L; lactam 4-C)	2 µg/mL (≈ 1.65 µM)	1 µg/mL (≈ 0.823 µM)	1 µg/mL (≈ 0.823 µM)	2 µg/mL (≈ 1.65 µM)	2 µg/mL (≈ 1.65 µM)	16 µg/mL (≈ 13.2 µM)	8 µg/mL (≈ 6.58 µM)	2 µg/mL (≈ 1.65 µM)	1 µg/mL (≈ 0.823 µM)	4 µg/mL (≈ 3.29 µM)	0.25 µg/mL (≈ 0.206 µM)	2 µg/mL (≈ 1.65 µM)	4 µg/mL (≈ 3.29 µM)	0.5 µg/mL (≈ 0.411 µM)	4 µg/mL (≈ 3.29 µM)	2 µg/mL (≈ 1.65 µM)	4 µg/mL (≈ 3.29 µM)	6.1 mg/kg	–
